The test system of this assay is internal anal sphincter (IAS) smooth muscle. Put plainly: NANC nerve-mediated relaxation of IAS smooth muscle strips by electrical field stimulation. Details: species or system opossum (Didelphis virginiana). Conditions: for decrease in basal IAS tension after ABHA: 1×10^−4 molar. The source says: The entire anal canal was isolated carefully by dissection and transferred to a dissecting tray containing oxygenated (95% O2 plus 5% CO2) Krebs' solution. The composition of the Krebs' solution was as follows (in millimolar): NaCl, 118.07; KCl 4.69; […] MgSO4, 1.16; […] NaHCO3, 25 and glucose (Pufahl et al., 1995, Biochemistry 34:1930-1941; […] et al., 1993, Biochem. Biophys. Res. Commun. 196:1558-1565). The anal canal was cleaned of extraneous connective tissue and blood vessels. Following this, the anal canal was opened by making an incision along the longitudinal axis, and was pinned flat with the mucosal side facing up. The mucosa and submucosa were removed by sharp dissection. Circular smooth muscle strips were obtained from the whole circumference of the anal canal and divided into two equal strips (about 1×8 millimeters). Both ends of the muscle strips were secured with silk sutures (4-0: Ethicon Inc., Sommerville, N.J.) and used for the measurement of isometric tension. […] One end of each muscle strip was fixed to the bottom of the muscle bath with a tissue holder and the other end was attached to an isometric force transducer (model FT03; Grass Instruments Co., Quincy, Mass.) in order to measure isometric tension. Smooth muscle tension was recorded using a […] recorder (model […]; Beckman Instruments, Schiller Park, Ill.). […] J. Physiol. 255:[…]-[…]). Only those smooth muscle strips that developed spontaneous and steady tension and relaxed in response to electrical field stimulation (EFS) were used. EFS was delivered, via a pair of platinum wires, from a Grass stimulator (Model S88; Grass Instruments Co., Quincy, Mass.) connected in series to a Med-Lab […] (Med-Lab Instruments, Loveland, Colo.). […] These parameters of EFS are known to cause relaxation of IAS smooth muscle by selective activation of NANC myenteric neurons. Neurally-mediated relaxation of IAS smooth muscle strips was quantified in response to different frequencies of EFS. […] To determine the influence of arginase on NANC nerve-mediated relaxation of IAS, the effects of different doses of arginase on relaxation were first determined. […] The effectiveness of arginase inhibitors (L-OH-Arg and ABHA) on arginase-induced attenuation of EFS-induced IAS relaxation was then tested. Optimal doses of arginase and L-OH-Arg in IAS have been reported ([…] and […]. Pharmacol. Exp. Ther. 282:378-384). In order to determine the selectivity of arginase inhibitors in IAS, their effects on IAS relaxation suppressed by the NO synthase inhibitor L-NNA ([…]) were tested. […] To examine the physiological relevance of arginase inhibitors in IAS relaxation, the influence of selected concentrations of arginase inhibitors on EFS-induced IAS relaxation was examined. […] Each smooth muscle strip served as its own control. […] The results are expressed as means±standard error.

The structures appear in SMILES notation. Entries after “also recorded” stand apart in the source; their conditions may differ.

`N[C@@H](CCCCB(O)O)C(=O)O` [compound 7, 2(S)-amino-6-boronohexanoic acid]: the “decrease in basal IAS tension after ABHA” value (0.5 Hertz EFS) is 56.5±7.0% and the “decrease in basal IAS tension after ABHA” value (1 Hertz EFS) stood at 73.6±3.5%. In addition, the “effect on arginase-suppressed EFS-induced IAS relaxation” value (exogenous arginase, L-HO-Arg 1×10^−4 molar, listed as ABHA) was “reversal”. Further, under “lower frequencies of EFS, listed as ABHA”, the “augmentation of NANC nerve-mediated IAS relaxation by EFS” value is “significant and concentration-dependent augmentation”. In addition, under “with L-NNA, L-HO-Arg and ABHA 3×10^−4 molar”, the “reversal of L-NNA-suppressed IAS relaxation” value was “did not cause any reversal; also recorded: no effect”.

For the origin of these results see patent US6723710B2, “Compositions for inhibiting arginase activity” (The Trustees of the University of Pennsylvania, priority 1997, dated 2004).
